Results published in the NIST ThermoML archive (doi:10.1016/j.fluid.2014.12.040).

Assay: xn = mol fraction of the nth substance listed
Settings: for surface tension liquid-gas: Wilhelmy-plate method; for mass density: 100 kPa, Liquid, Vibrating tube method

CC(O)CO (stereo not given) [1,2-propanediol] + CC(C)O
Settings | mass density, 298.15 K [kg/m3] | mass density, 308.15 K [kg/m3] | mass density, 318.15 K [kg/m3] | mass density, 328.15 K [kg/m3] | surface tension liquid-gas, 298.15 K [mN/m] | surface tension liquid-gas, 308.15 K [mN/m] | surface tension liquid-gas, 318.15 K [mN/m] | surface tension liquid-gas, 328.15 K [mN/m]
x2 = 0 | 1032.69 | 1025.21 | 1017.51 | 1009.78 | 35.74 | 35.35 | 34.96 | 34.6
x2 = 0.05 | 1020.3 | 1012.75 | 1005.08 | 997.4 | 32.86 | 32.56 | 32.35 | 32.15
x2 = 0.1 | 1007.84 | 1000.22 | 992.51 | 984.7 | 31.27 | 30.98 | 30.74 | 30.54
x2 = 0.15 | 995.3 | 987.63 | 979.84 | 971.99 | 30.1 | 29.77 | 29.48 | 29.26
x2 = 0.2 | 982.74 | 974.98 | 967.11 | 959.2 | 29.09 | 28.74 | 28.42 | 28.18
x2 = 0.25 | 970.17 | 962.34 | 954.39 | 946.41 | 28.21 | 27.85 | 27.51 | 27.25
x2 = 0.3 | 957.54 | 949.69 | 941.69 | 933.61 | 27.43 | 27.04 | 26.68 | 26.4
x2 = 0.35 | 944.87 | 936.95 | 928.9 | 920.73 | 26.72 | 26.31 | 25.94 | 25.64
x2 = 0.4 | 932.21 | 924.2 | 916.09 | 907.91 | 26.06 | 25.64 | 25.25 | 24.93
x2 = 0.45 | 919.52 | 911.47 | 903.3 | 895.1 | 25.43 | 25.01 | 24.64 | 24.3
x2 = 0.5 | 906.84 | 898.7 | 890.5 | 882.26 | 24.89 | 24.47 | 24.05 | 23.71
x2 = 0.55 | 894.16 | 885.97 | 877.7 | 869.44 | 24.39 | 23.94 | 23.52 | 23.16
x2 = 0.6 | 881.5 | 873.25 | 865 | 856.69 | 23.89 | 23.44 | 23.01 | 22.64
x2 = 0.65 | 868.82 | 860.56 | 852.29 | 843.93 | 23.43 | 22.95 | 22.51 | 22.12
x2 = 0.7 | 856.16 | 847.8 | 839.59 | 831.21 | 22.99 | 22.49 | 22.03 | 21.62
x2 = 0.75 | 843.49 | 835.09 | 826.8 | 818.53 | 22.58 | 22.04 | 21.56 | 21.13
x2 = 0.8 | 830.89 | 822.4 | 813.99 | 805.71 | 22.2 | 21.63 | 21.11 | 20.65
x2 = 0.85 | 818.33 | 809.75 | 801.22 | 792.81 | 21.82 | 21.21 | 20.66 | 20.16
x2 = 0.9 | 805.84 | 797.18 | 788.63 | 780.09 | 21.47 | 20.82 | 20.23 | 19.68
x2 = 0.95 | 793.45 | 784.7 | 776.1 | 767.47 | 21.12 | 20.43 | 19.8 | 19.21

CC(O)CO (stereo not given) [1,2-propanediol] + O
Settings | mass density, 298.15 K [kg/m3] | mass density, 308.15 K [kg/m3] | mass density, 318.15 K [kg/m3] | mass density, 328.15 K [kg/m3] | surface tension liquid-gas, 298.15 K [mN/m] | surface tension liquid-gas, 308.15 K [mN/m] | surface tension liquid-gas, 318.15 K [mN/m] | surface tension liquid-gas, 328.15 K [mN/m]
x1 = 0.05 | 1011.79 | 1007.53 | 1002.61 | 997.16 | 56.18 | 54.93 | 53.89 | 52.6
x1 = 0.1 | 1022.73 | 1017.48 | 1011.69 | 1005.39 | 50.94 | 49.9 | 48.9 | 47.83
x1 = 0.15 | 1030.33 | 1024.23 | 1017.73 | 1010.88 | 47.41 | 46.53 | 45.71 | 44.66
x1 = 0.2 | 1035.27 | 1028.47 | 1021.65 | 1014.32 | 45.19 | 44.36 | 43.45 | 42.52
x1 = 0.25 | 1038.27 | 1031.17 | 1023.85 | 1016.27 | 43.64 | 42.89 | 42.15 | 41.17
x1 = 0.3 | 1039.85 | 1032.55 | 1025.01 | 1017.25 | 42.6 | 41.92 | 41.19 | 40.38
x1 = 0.35 | 1040.55 | 1033.05 | 1025.42 | 1017.54 | 41.43 | 40.86 | 40.19 | 39.49
x1 = 0.4 | 1040.6 | 1033.02 | 1025.34 | 1017.47 | 40.47 | 39.78 | 39.24 | 38.57
x1 = 0.45 | 1040.28 | 1032.76 | 1025.05 | 1017.1 | 39.44 | 38.89 | 38.36 | 37.8
x1 = 0.5 | 1039.83 | 1032.3 | 1024.54 | 1016.59 | 38.76 | 38.27 | 37.73 | 37.19
x1 = 0.55 | 1039.24 | 1031.7 | 1023.93 | 1016 | 37.95 | 37.5 | 37.07 | 36.55
x1 = 0.6 | 1038.53 | 1031.03 | 1023.29 | 1015.39 | 37.4 | 36.94 | 36.63 | 36.15
x1 = 0.65 | 1037.84 | 1030.31 | 1022.58 | 1014.69 | 36.98 | 36.57 | 36.15 | 35.75
x1 = 0.7 | 1037.09 | 1029.56 | 1021.87 | 1014 | 36.8 | 36.35 | 35.89 | 35.53
x1 = 0.75 | 1036.33 | 1028.81 | 1021.11 | 1013.3 | 36.62 | 36.24 | 35.79 | 35.32
x1 = 0.8 | 1035.57 | 1028.06 | 1020.37 | 1012.54 | 36.44 | 36.1 | 35.66 | 35.17
x1 = 0.85 | 1034.81 | 1027.32 | 1019.61 | 1011.8 | 36.26 | 35.94 | 35.52 | 35.04
x1 = 0.9 | 1034.08 | 1026.59 | 1018.9 | 1011.06 | 36.08 | 35.76 | 35.4 | 34.88
x1 = 0.95 | 1033.35 | 1025.88 | 1018.19 | 1010.37 | 35.9 | 35.52 | 35.14 | 34.75
x1 = 1 | 1032.69 | 1025.21 | 1017.51 | 1009.78 | 35.74 | 35.35 | 34.96 | 34.6
